Test results from patent publication US8518965B2, “Compositions and methods for treating cancer” (Trustees of Dartmouth College, priority 2009, dated 2013).
Read-outs that look alike come from different tables or passages of the source. Marks after values point to notes of the source that are not given here. Each block holds one compound with its values, some of them ahead of it.

Assays:
[1] = system: HCT116 human colon cancer cells; assay: Colony formation assay, HCT116 cells; assay type: cell-based; conditions: 72 hours with compound, colonies counted after 24 days (Example 9), read-out: IC50
Experimental: (§1) NCI/ADR-RES human breast cancer cells (500 cells), HCT116 human colon cancer cells (400 cells) or SF 295 human glioblastoma cells (1000 cells) were plated in 60 mm Petri dishes containing 2.7 ml of medium (modified McCoy's 5a medium containing 10% fetal bovine serum and 100 units/ml penicillin and 100 μg/ml streptomycin). The cells were incubated in a CO2 incubator at 37° C. for 5 hours for attachment to the bottom of Petri dishes. Compounds were prepared fresh in medium at ten times the final concentration, and then 0.3 ml of this stock solution was added to the 2.7 ml of medium in the dish. The cells were then incubated with compounds for 72 hours at 37° C. At the end of incubation, the compound-containing media were decanted, the dishes were rinsed with 4 ml of Hank's Balance Salt Solution (HBSS), 5 ml of fresh medium was added, and the dishes were returned to the incubator for colony formation. The cell colonies were counted using a colony counter after incubation for 14 days for NCI/ADR-RES cells and 10 days for HCT116 cells and SF 295 cells. Cell survival was calculated and the IC50 values (the drug concentration producing 50% inhibition of colony formation) were determined for each tested compound.
Four hundred HCT116 cells were plated in 60 mm Petri dishes containing 2.7 ml of medium (modified McCoy's 5a medium containing 10% fetal bovine serum and 100 units/ml penicillin and 100 μg/ml streptomycin). The cells were incubated in a CO2 incubator at 37° C. for 5 hours for attachment to the bottom of Petri dishes. Compounds were prepared fresh in medium at ten times the final concentration, and then 0.3 ml of this stock solution was added to the 2.7 ml of medium in the dish. The cells were then incubated with drugs for 72 hours at 37° C. At the end of incubation the compound-containing media were decanted, the dishes were rinsed with 4 ml of Hank's Balance Salt Solution (HBSS), 5 ml of fresh medium was added, and the dishes were returned to the incubator for colony formation. HCT116 cell colonies were counted using a colony counter after […] of incubation. Cell survival was calculated and IC50 values were determined for each compound tested.

[2] = system: SF 295 human glioblastoma cells; assay: Colony formation assay, SF 295 cells; assay type: cell-based; conditions: for Killing / inhibition of the growth of SF 295 human glioblastoma cells (in words): Example 10; for IC50: Homo sapiens, SF 295 cells, 72 hours with compound, colonies counted after 10 days (Example 10), read-out: IC50
Experimental: as §1
One thousand SF 295 cells were plated in 60 mm Petri dishes containing 2.7 ml of medium (modified McCoy's 5a medium containing 10% fetal bovine serum and 100 units/ml penicillin and 100 μg/ml streptomycin). The cells were incubated in a CO2 incubator at 37° C. for 5 hours for attachment to the bottom of Petri dishes. Compounds were prepared fresh in medium at ten times the final concentration, and then 0.3 ml of this stock solution was added to the 2.7 ml of medium in the dish. The cells were then incubated with the compounds for 72 hours at 37° C. At the end of incubation, the compound-containing media were decanted, the dishes were rinsed with 4 ml of Hank's Balance Salt Solution (HBSS), 5 ml of fresh medium was added, and the dishes were returned to the incubator for colony formation. After incubation for 10 days, the cell colonies were counted using a colony counter. Cell survival was calculated and the values of IC50 were determined for each compound tested.

normal C3H/HeN mice = assay: Maximum tolerated dose (MTD40) in normal mice; conditions: suspension formulation, single intraperitoneal injection, 40 days
Experimental: The MTD40 (maximum tolerated dose at day 40) values were determined on normal C3H/HeN mice using standard procedures. […] The result of this exercise was two dosages, one apparently nonlethal and the other lethal, if severe and irreversible toxicity occurred and euthanasia was required. Six mice were dosed at each dosage. If no severe and irreversible toxicity occurred at the lower dosage and at least one with severe and irreversible toxicity at the higher dose, then the lower dose was considered to be the MTD.
Compounds were administered to C3H/HeN mice by intraperitoneal injection (5% alcohol, 5% CREMOPHOR® EL, and 90% saline, 0.5 ml/20 gram, single injection). Drug toxicity was evaluated on mice checked daily for 40 days. The toxicity parameters reported were the MTD40. […] At the end of experiment, all mice were euthanized.
The toxicity parameters reported were the MTD40. At the end of experiment, all mice will be euthanized.

[3] = Solubility in solvents and buffers; assay type: physicochemical
Experimental: Characterization of D11B. The solubility of D11B in different solvents was analyzed (Table 1).
(§2) The solubility of D11B in various combinations of solvents was also analyzed. […] For the analysis of co-solvents, stock solutions were prepared by dissolving D11B in a corresponding solvent. Stock solutions of D11B in dimethylsulfoxide (DMSO) were prepared at 25° C., and stock solutions of D11B in PEG-400, CREMOPHOR® EL and Polysorbate 80 were prepared at 100° C. Injection solutions, in water (0.3 mg/ml), were prepared by dropwise addition of the stock solution to a required volume of vigorously stirred hot water (80° C.).
The solubility of D11B×2AH in DMSO, PEG-400, EtOH, and buffer was determined (Table 7).

[4] = State of stock and injection solutions in water + co-solvents; assay type: physicochemical
Experimental: as §2
Additional solubility determinations were carried out with D11B×2AH in water+co-solvents. For this analysis, stock solutions were prepared by dissolving D11B×2AH in a corresponding solvent. Stock solutions of D11B×2AH in DMSO were prepared at 25° C. and stock solutions of D11B×2AH in PEG-400 were prepared at 100° C.
Injection solutions in water (0.3 mg/ml) were prepared by dropwise addition of each stock solution to a required volume of vigorously stirred water.

[5] = Homo sapiens, HCT-116, HCT116 cells

IC50 ([1]; HCT116 cells): 3340 nM
melting point: 263 to 264 °C
Compound: c1cc(Nc2ccc(Oc3ccc(Nc4ccncc4)cc3)cc2)ccn1 [Compound 244B]

IC50 ([1]; HCT116 cells): 722 nM
melting point: 338 to 340 °C
Compound: c1ccc2c(Nc3ccc(Oc4ccc(Nc5c6ccccc6nc6ncccc56)cc4)cc3)c3cccnc3nc2c1 [Compound 254B]

IC50 [1, 5]: 4220 nM
Compound: c1cc(Nc2ccc(Oc3ccc(Nc4ccncc4)cc3)cc2)ccn1 [Compound D244]

Compound: c1ccc2c(Nc3ccc(Oc4ccc(Nc5ccnc6ccccc56)cc4)cc3)ccnc2c1 [Compound D245B]
Killing / inhibition of the growth of SF 295 human glioblastoma cells (in words) [2]: effective
IC50 [2]: 133 nM
IC50 ([1]; HCT116 cells): 79 nM
IC50 [1, 5]: 122 nM
Values of MTD40 (normal C3H/HeN mice): 25 mg/kg

IC50 ([1]; HCT116 cells): 1460 nM
Compound: c1ccc2c(Nc3ccc(Oc4ccc(Nc5c6ccccc6nc6ncccc56)cc4)cc3)c3cccnc3nc2c1 [Compound D254]

IC50 [2]: 1420 nM
melting point: 114 to 115 °C
Compound: c1ccc2c(c1)Cc1c-2nc2ccccc2c1Nc1ccc(Oc2ccc(Nc3c4c(nc5ccccc35)-c3ccccc3C4)cc2)cc1 [Compound D275]
Killing / inhibition of the growth of SF 295 human glioblastoma cells (in words) [2]: effective

IC50 [2]: > 5000 nM
melting point: 372 °C
Compound: c1nc(Nc2ccc(Oc3ccc(Nc4ncnc5[nH]cnc45)cc3)cc2)c2nc[nH]c2n1 [Compound D276]

IC50 [2]: > 5000 nM
melting point: 110 to 112 °C
Compound: c1ccc2c(Nc3ccc(Oc4ccc(Nc5nccc6ccccc56)cc4)cc3)nccc2c1 [Compound D278]

IC50 [2]: > 5000 nM
melting point: 124 to 125 °C
Compound: c1ccc2c(Nc3ccc(Oc4ccc(Nc5ncnc6ccccc56)cc4)cc3)ncnc2c1 [Compound D281]

IC50 [2]: > 5000 nM
melting point: 362 °C
Compound: c1ccc2c(Nc3ccc(Oc4ccc(Nc5cnnc6ccccc56)cc4)cc3)cnnc2c1 [Compound D284]

Compound: Cc1cc(Nc2ccc(Oc3ccc(Nc4cc(C)nc5ccccc45)cc3)cc2)c2ccccc2n1 [Compound D288]
Killing / inhibition of the growth of SF 295 human glioblastoma cells (in words) [2]: effective
IC50 [2]: 85 nM
Values of MTD40 (normal C3H/HeN mice): 25 mg/kg

Compound: c1ccc2c(Nc3ccc(Oc4ccc(Nc5c6ccccc6nc6ccccc56)cc4)cc3)c3ccccc3nc2c1 [D11Bx2AH 1, D11B digluconate]
Solubility (mg/ml), 25° C. ([3]; D11Bx2AH salts, DMSO, listed as 1): 31 mg/mL
Solubility (mg/ml), 25° C. ([3]; D11Bx2AH salts, PEG-400, samples were dissolved at 100° C., listed as 1): >10 mg/mL
solubility ([3]; EtOH, 25 °C, organic solvent or mixture, D11Bx2AH salts, EtOH, read-out: Solubility (mg/ml), 25° C.): > 1 mg/mL
solubility ([3]; PEG-400, organic solvent or mixture, PEG-400 (Table 16), heating to 100° C. was required, read-out: Solubility): > 10 mg/mL
solubility ([3]; buffer, 25 °C, pH 4, aqueous buffer, D11Bx2AH salts, Buffer (pH = 4), even at 100° C., read-out: Solubility (mg/ml), 25° C.): > 0.5 mg/mL
solubility ([3]; buffer, 25 °C, pH 6, aqueous buffer, D11Bx2AH salts, Buffer (pH = 6), even at 100° C., read-out: Solubility (mg/ml), 25° C.): > 0.5 mg/mL
State of the stock solution ([4]; digluconate (1) in DMSO, 22 mg/ml): clear
State of the stock solution ([4]; digluconate (1) in DMSO, 31 mg/ml): clear
State of the injection solution ([4]; digluconate (1) in H2O—DMSO 0.3 mg/ml, stock 22 mg/ml, DMSO 1.50 wt. %): clear
State of the injection solution ([4]; digluconate (1) in H2O—DMSO 0.3 mg/ml, stock 31 mg/ml, DMSO 1.06 wt. %): clear

Compound: c1ccc2c(Nc3ccc(Oc4ccc(Nc5c6ccccc6nc6ccccc56)cc4)cc3)c3ccccc3nc2c1 [D11Bx2AH 4, D11B dilactabionate]
Solubility (mg/ml), 25° C. ([3]; D11Bx2AH salts, DMSO, listed as 4): 40 mg/mL
Solubility (mg/ml), 25° C. ([3]; D11Bx2AH salts, PEG-400, samples were dissolved at 100° C., listed as 4): >10 mg/mL
Solubility (mg/ml) ([3]; PEG-400 (Table 16), heating to 100° C. was required, listed as dilactabionate (4)): >10^ mg/ml
State of the stock solution ([4]; dilactobionate (4) in DMSO, 20 mg/ml): clear
State of the stock solution ([4]; dilactobionate (4) in DMSO, 40 mg/ml): clear
State of the injection solution ([4]; dilactobionate (4) in H2O—DMSO 0.3 mg/ml, stock 20 mg/ml, DMSO 1.36 wt. %): clear
State of the injection solution ([4]; dilactobionate (4) in H2O—DMSO 0.3 mg/ml, stock 40 mg/ml, DMSO 0.68 wt. %): clear

Compound: c1ccc2c(Nc3ccc(Oc4ccc(Nc5c6ccccc6nc6ccccc56)cc4)cc3)c3ccccc3nc2c1 [D11Bx2AH 6, D11B digallate]
Solubility (mg/ml), 25° C. ([3]; D11Bx2AH salts, DMSO, listed as 6): 325 mg/mL
Solubility (mg/ml) ([3]; PEG-400 (Table 16), heating to 100° C. was required, listed as digallate (6)): 20^a mg/ml
solubility ([3]; PEG-400, 25 °C, organic solvent or mixture, D11Bx2AH salts, PEG-400, samples were dissolved at 100° C., read-out: Solubility (mg/ml), 25° C.): 20 mg/mL
State of the stock solution ([4]; digalate (6) in DMSO, 20 mg/ml): clear
State of the stock solution ([4]; digalate (6) in DMSO, 39.9 mg/ml): clear
State of the stock solution ([4]; digalate (6) in DMSO, 77 mg/ml): clear
State of the stock solution ([4]; digalate (6) in DMSO, 158 mg/ml): clear
State of the stock solution ([4]; digalate (6) in DMSO, 325 mg/ml): clear
State of the injection solution ([4]; digalate (6) in H2O—DMSO 0.3 mg/ml, stock 20 mg/ml, DMSO 1.65 wt. %): clear
State of the injection solution ([4]; digalate (6) in H2O—DMSO 0.3 mg/ml, stock 39.9 mg/ml, DMSO 0.83 wt. %): clear
State of the injection solution ([4]; digalate (6) in H2O—DMSO 0.3 mg/ml, stock 325 mg/ml, DMSO 0.1 wt. %): prec.

Compound: c1ccc2c(Nc3ccc(Oc4ccc(Nc5c6ccccc6nc6ccccc56)cc4)cc3)c3ccccc3nc2c1 [D11Bx2AH 7, D11B bis(3,4-dihydroxyphenylacetate)]
Solubility (mg/ml), 25° C. ([3]; D11Bx2AH salts, DMSO, listed as 7): 66 mg/mL
State of the stock solution ([4]; bis(3,4-dihydroxyphenylacetate) (7) in DMSO, 66 mg/ml): clear
State of the injection solution ([4]; bis(3,4-dihydroxyphenylacetate) (7) in H2O—DMSO 0.3 mg/ml, DMSO 0.5 wt. %): clear
